In ChEMBL document CHEMBL4396966, “Synthesis, biological evaluation and molecular docking of 4-Amino-2H-benzo[h]chromen-2-one (ABO) analogs containing the piperazine moiety” (Bioorg Med Chem, 2019):
The source made the active and inactive calls. The calls are words filed in the database; no cut-off is given here.

Experiments:
[1] = Antiproliferative activity against AR-rich human LNCaP-hr cells assessed as reduction in cell viability after 24 hrs by CCK-8 assay; format: functional
[2] = biological target: T1, Androgen receptor (Homo sapiens) (UniProt P10275); settings: at 10 µM
T1 sequence (whole entry): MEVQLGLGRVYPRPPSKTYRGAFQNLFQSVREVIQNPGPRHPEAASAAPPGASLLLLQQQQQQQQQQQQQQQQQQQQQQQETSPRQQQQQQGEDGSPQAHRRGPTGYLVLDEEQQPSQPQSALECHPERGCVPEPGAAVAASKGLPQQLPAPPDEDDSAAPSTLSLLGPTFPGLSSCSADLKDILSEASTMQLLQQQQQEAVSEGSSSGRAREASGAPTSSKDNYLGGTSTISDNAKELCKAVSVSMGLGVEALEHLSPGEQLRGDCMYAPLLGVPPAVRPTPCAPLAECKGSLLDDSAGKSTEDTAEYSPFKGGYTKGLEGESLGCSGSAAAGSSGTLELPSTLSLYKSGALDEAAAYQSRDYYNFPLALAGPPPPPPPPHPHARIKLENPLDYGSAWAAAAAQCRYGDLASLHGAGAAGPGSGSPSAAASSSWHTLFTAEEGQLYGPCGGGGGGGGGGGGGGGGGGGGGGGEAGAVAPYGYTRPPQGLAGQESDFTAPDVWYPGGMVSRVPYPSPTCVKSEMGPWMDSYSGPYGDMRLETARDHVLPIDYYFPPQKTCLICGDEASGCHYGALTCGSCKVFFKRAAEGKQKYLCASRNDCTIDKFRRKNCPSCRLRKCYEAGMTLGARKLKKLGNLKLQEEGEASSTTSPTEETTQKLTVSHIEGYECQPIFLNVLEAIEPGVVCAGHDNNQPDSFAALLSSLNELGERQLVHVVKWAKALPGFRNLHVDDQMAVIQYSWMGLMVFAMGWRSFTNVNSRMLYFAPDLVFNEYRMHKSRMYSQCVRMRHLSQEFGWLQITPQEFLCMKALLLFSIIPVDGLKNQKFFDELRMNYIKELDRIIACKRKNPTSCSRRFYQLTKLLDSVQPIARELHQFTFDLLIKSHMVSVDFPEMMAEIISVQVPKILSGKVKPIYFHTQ

PC-3 = assay: Antiproliferative activity against AR-deficient human PC3 cells assessed as reduction in cell viability after 24 hrs by CCK-8 assay; format: functional, cell-based; settings: PC-3, 24 h
Androgen receptor = biological target: T2, Androgen receptor (Rattus norvegicus, UniProt P15207); assay: Displacement of fluormone-AL Green from His-tagged/GST-fused recombinant rat androgen receptor LBD expressed in insect cells measured after 4 hrs by fluorescence polarization assay
T2 sequence (P15207 whole entry): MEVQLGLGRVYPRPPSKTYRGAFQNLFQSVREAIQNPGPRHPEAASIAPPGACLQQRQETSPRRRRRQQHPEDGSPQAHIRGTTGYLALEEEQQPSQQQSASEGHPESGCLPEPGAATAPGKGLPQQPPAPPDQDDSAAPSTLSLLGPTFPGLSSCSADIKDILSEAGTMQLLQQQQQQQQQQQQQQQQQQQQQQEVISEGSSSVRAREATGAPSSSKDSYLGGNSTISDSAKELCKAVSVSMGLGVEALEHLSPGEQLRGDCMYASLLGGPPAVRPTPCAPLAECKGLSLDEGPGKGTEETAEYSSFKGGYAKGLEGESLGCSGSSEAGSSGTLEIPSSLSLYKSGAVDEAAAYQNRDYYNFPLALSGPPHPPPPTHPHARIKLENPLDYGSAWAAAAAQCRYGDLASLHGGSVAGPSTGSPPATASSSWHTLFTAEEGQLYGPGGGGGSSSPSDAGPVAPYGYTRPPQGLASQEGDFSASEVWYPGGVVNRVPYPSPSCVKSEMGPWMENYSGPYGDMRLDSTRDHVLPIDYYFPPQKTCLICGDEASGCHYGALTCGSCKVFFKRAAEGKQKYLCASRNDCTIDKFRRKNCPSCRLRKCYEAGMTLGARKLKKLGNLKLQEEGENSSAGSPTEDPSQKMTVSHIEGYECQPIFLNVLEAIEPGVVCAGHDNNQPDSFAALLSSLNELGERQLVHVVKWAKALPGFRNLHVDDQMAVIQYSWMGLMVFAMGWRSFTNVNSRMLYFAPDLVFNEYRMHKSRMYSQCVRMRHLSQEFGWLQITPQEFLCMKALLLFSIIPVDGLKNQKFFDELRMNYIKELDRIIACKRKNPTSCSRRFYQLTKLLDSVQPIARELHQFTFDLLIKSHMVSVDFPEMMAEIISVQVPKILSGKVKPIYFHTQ

Compound | IC50 [1] | inhibition [2] | IC50 (PC-3) | IC50 (Androgen receptor)
O=c1cc(N2CCN(c3cccc(Cl)c3)CC2)c2ccc3ccccc3c2o1 | 2.9 µM | 40.1% | 165 µM | 
COc1ccccc1N1CCN(c2cc(=O)oc3c2ccc2ccccc23)CC1 | 1.7 µM | 61.2% | > 200 µM | 1.26 µM
O=c1cc(N2CCN(c3ccc(F)cc3)CC2)c2ccc3ccccc3c2o1 | 19.3 µM | 43.5% | > 200 µM | 
CC(C)(C)NC(=O)[C@H]1CC[C@H]2[C@@H]3CC[C@H]4NC(=O)C=C[C@]4(C)[C@H]3CC[C@]12C [FINASTERIDE] | 14.5 µM |  |  | 
Cc1cccc(N2CCN(c3cc(=O)oc4c3ccc3ccccc34)CC2)c1 | 32.5 µM | 45.5% | 54.1 µM | 
O=c1cc(N2CCN(C(c3ccc(F)cc3)c3ccc(F)cc3)CC2)c2ccc3ccccc3c2o1 | 1.02 µM | 70.3% | > 200 µM | 0.85 µM
O=c1cc(N2CCN(c3ccc(Cl)cc3)CC2)c2ccc3ccccc3c2o1 | 1.3 µM | 53.7% | > 200 µM | 2.56 µM
O=c1cc(N2CCN(c3ccccc3Cl)CC2)c2ccc3ccccc3c2o1 | 9.69 µM | 51.2% | > 200 µM | 3.87 µM
COc1cccc(N2CCN(c3cc(=O)oc4c3ccc3ccccc34)CC2)c1 | 13.3 µM | 41.2% | > 200 µM | 
Cc1ccccc1N1CCN(c2cc(=O)oc3c2ccc2ccccc23)CC1 | 4.43 µM | 53.1% | 109 µM | 3.54 µM
O=c1cc(N2CCN(c3ccc(C(F)(F)F)cc3)CC2)c2ccc3ccccc3c2o1 | 12.3 µM | 20.7% | > 200 µM | 
COc1ccc(N2CCN(c3cc(=O)oc4c3ccc3ccccc34)CC2)cc1 | 5.6 µM | 59.1% | 117 µM | 1.56 µM
O=c1cc(N2CCN(c3ccc(F)cc3F)CC2)c2ccc3ccccc3c2o1 | > 50 µM | 45.1% | 122 µM | 
N#Cc1ccc(N2CCN(c3cc(=O)oc4c3ccc3ccccc34)CC2)c(F)c1 | 37.8 µM | 30.2% | > 200 µM | 
O=c1cc(N2CCN(c3ccccc3F)CC2)c2ccc3ccccc3c2o1 | 1.89 µM | 52.3% | 124 µM | 3.72 µM
C[C@]1(O)CC[C@H]2[C@@H]3CCC4=CC(=O)CCC4=C3C=C[C@@]21C |  | inactive |  | 
O=c1cc(N2CCN(c3ccc(Br)cc3)CC2)c2ccc3ccccc3c2o1 | > 50 µM | 25.1% | > 200 µM | 
CCOc1ccccc1N1CCN(c2cc(=O)oc3c2ccc2ccccc23)CC1 | 1.43 µM | 58.5% | > 200 µM | 2.08 µM
Cc1ccc(Cl)cc1N1CCN(c2cc(=O)oc3c2ccc2ccccc23)CC1 | 15.3 µM | 48.3% | > 200 µM | 
O=c1cc(N2CCN(c3ccccc3C(F)(F)F)CC2)c2ccc3ccccc3c2o1 | 1.14 µM | 65.4% | 108 µM | 1.04 µM
O=c1cc(N2CCN(c3ccccc3)CC2)c2ccc3ccccc3c2o1 | 5.05 µM | 51.2% | > 200 µM | 3.94 µM
O=c1cc(N2CCN(Cc3ccccc3)CC2)c2ccc3ccccc3c2o1 | 0.52 µM | 72.1% | > 200 µM | 0.55 µM
Cc1ccc(N2CCN(c3cc(=O)oc4c3ccc3ccccc34)CC2)cc1 | 7.7 µM | 53.3% | 136 µM | 3.02 µM
O=c1cc(N2CCN(c3ccccn3)CC2)c2ccc3ccccc3c2o1 | 1.92 µM | 54.5% | 150 µM | 2.21 µM
